{
  "source": "patent US12478658B2",
  "about": "“Enhanced efficacy of combination of gemcitabine and phosphatidylserine-targeted nanovesicles against pancreatic cancer” (University of Cincinnati, priority 2020, dated 2025)",
  "key": {"cfPac-1 cells": {"test_system": "cfPac-1 cells", "experiment": "MTT viability of cells sorted into low and high surface PS populations after GEM", "format": "cell-based, human", "protocol": "Cell Sorting. Cells were grown to 60-80% confluency then stained with annexin V-FITC as above but without PI. The cells were then passed through a cell sorter (BD Aria III) and cells with low and high surface PS were collected (˜15% of the cells at each end of the peak; see FIG. 1). The cells were placed in 96 well plates and immediately treated with 0, 25 or 50 nM of GEM. The MTT assay (Roche) was conducted 72 hr later to determine the effect of the GEM on cell viability."}, "[1]": {"test_system": "cfPac-1, MiaPaCa-2 and p53.2.2.1 cells", "experiment": "Cell cycle analysis by Hoechst staining after GEM or SapC-DOPS", "format": "cell-based, human, mouse", "settings": "GEM 1-2 μM 24 hrs; SapC-DOPS 20-30 μM 72 hrs", "description": "For cell cycle analyses of cells treated with GEM or SapC-DOPS, MiaPaCa-2, cfPac-1 and p53.2.2.1 cells were cultured to 70% confluency. Cells (2.5×10^5) were plated overnight in 60 mm cell culture plates. MiaPaCa-2, cfPac-1 and p53.2.2.1 were treated with 1 μM, 2 μM, and 1 μM GEM respectively for 24 hrs. or with 30 μM, 25 μM and 20 μM SapC-DOPS respectively for 72 hrs. (MiaPaCa-2 and p53.2.2.1) or 24 hrs (cfPac-1). Following treatment, 10^6 cells were stained with Hoechst 33342 as described above."}, "[2]": {"test_system": "cfPac-1 and MiaPaCa-2 cells", "experiment": "Western blot cyclin B1/cyclin D1 ratio after GEM or SapC-DOPS", "format": "cell-based, human", "settings": "cfPac-1 and MiaPaCa-2, western blot after treatment", "description": "Protein expression of cyclins D1 (a G1 marker) and B1 (a G2/M marker) following treatment with GEM or SapC-DOPS was measured by western blot and the cyclin B1 to cyclin D1 ratio was quantified in cfPac-1.\nWestern blot analyses. Following treatment with GEM or SapC-DOPS, cells were washed with PBS and lysed in RIPA Buffer (Sigma) supplemented with protease inhibitor cocktail tablets (Roche). A total of 30 μg of protein extract was separated using 4-15% Mini-PROTEAN Precast Gels (Bio-Rad) and transferred to Hybond-ECL Nitrocellulose membrane (Biosciences). Membranes were blocked for 1 hr. in 5% nonfat dry milk in 0.1% Tween-20 in PBS at 4° C. Blocked membranes were incubated with primary antibodies overnight at 4° C. Subsequently, membranes were washed 3 times for 10 min. with 0.1% Tween-20 in PBS. Secondary antibodies were incubated for 1 hr. at room temperature. Membranes were washed as above and incubated with SuperSignal West Dura Extended Duration Substrate (Thermo Scientific) for 5 min. Detection was performed using the ChemiDoc Touch Imaging System (Bio-Rad). Image Lab 5.2.1 software (Bio-Rad) was used to quantify the proteins on the western blots."}, "MiaPaCa-2 cells": {"test_system": "MiaPaCa-2 cells", "experiment": "Cell cycle stage targeting in hydroxyurea-synchronized cells", "format": "cell-based, human", "settings": "G1 synchronized MiaPaCa-2; 1 μM GEM 24 hrs or 30 μM SapC-DOPS 48 hrs", "description": "MiaPaCa-2 were treated with 4 mM hydroxyurea (HU) for synchronization. […] Following drug treatment, percent of cells in G1 and G2/M phase was measured using Hoechst staining*p<0.05**p<0.001, #p<0.0001.\nMiaPaCa-2 cells were grown to 70% confluency. Cells were treated with hydroxyurea (HU) in complete medium to a final concentration of 4 mM for 24 hrs."}, "[3]": {"test_system": "PDAC cells (MiaPaCa-2, cfPac-1)", "experiment": "Surface PS by annexin V-FITC flow cytometry after GEM exposure in vitro", "format": "cell-based, human", "protocol": "(§1) Cells were isolated 48 hr. following treatment with 40 mg/kg GEM, stained with annexin V-FITC and analyzed by flow cytometry. Only those cells that were negative for PI staining were assessed for annexin V labeling. Less than 10% of the cells (in vitro or in vivo) were killed by the GEM treatment.\nPhosphatidylserine levels measurements. Surface membrane PS levels were measured using annexin V-FITC (Invitrogen, Carlsbad, CA) as previously described (Chu et al. PLoS One 2013; 8(10):e75507, Davis et al. Oncotarget 2019; 10:856-868). In brief, cells were harvested using trypsin-EDTA (Thermo Fisher Scientific); the trypsin was inactivated with complete media and the cells were washed with PBS and resuspended at 1,000,000 cells/ml in annexin staining buffer. Aliquots of cells (0.1 ml/tube) were incubated with 10 μl of annexin V-FITC for 15 minutes at room temperature in the dark. Then 400 μl of annexin staining buffer was added to each tube. Samples were kept on ice and analyzed by flow cytometry within 1 hour after addition of 2 μl of 50 μg/ml propidium iodide (PI; to exclude dead cells). […] To this end, cells were incubated for 24 or 48 hr. with 10 nM-1 μM GEM and then stained with annexin V-FITC and PI and analyzed by flow cytometry."}, "[4]": {"test_system": "human pancreatic duct epithelial cells (HPDE)", "experiment": "Surface PS after GEM exposure in normal pancreatic cells", "format": "cell-based", "settings": "response to gemcitabine", "protocol": "Phosphatidylserine levels measurements. Surface membrane PS levels were measured using annexin V-FITC (Invitrogen, Carlsbad, CA) as previously described (Chu et al. PLoS One 2013; 8(10):e75507, Davis et al. Oncotarget 2019; 10:856-868). In brief, cells were harvested using trypsin-EDTA (Thermo Fisher Scientific); the trypsin was inactivated with complete media and the cells were washed with PBS and resuspended at 1,000,000 cells/ml in annexin staining buffer. Aliquots of cells (0.1 ml/tube) were incubated with 10 μl of annexin V-FITC for 15 minutes at room temperature in the dark. Then 400 μl of annexin staining buffer was added to each tube. Samples were kept on ice and analyzed by flow cytometry within 1 hour after addition of 2 μl of 50 μg/ml propidium iodide (PI; to exclude dead cells). The effects of GEM exposure on surface PS levels were studied in human PDAC cell lines (cfPac-1 and Mia-PaCa-2), a mouse PDAC cell line (p53 2.1.1) (Collisson et al. Cancer Discov 2012; 2(8):685-93) and immortalized, non-tumorigenic human pancreatic duct epithelial cells (HPDE). To this end, cells were incubated for 24 or 48 hr. with 10 nM-1 μM GEM and then stained with annexin V-FITC and PI and analyzed by flow cytometry."}, "[5]": {"test_system": "MiaPaCa-2 subcutaneous tumors", "experiment": "Surface PS of tumor cells isolated from subcutaneous xenografts after GEM in vivo", "set-up": "species or system mouse", "protocol": "as §1\nFor assessment of surface PS, when the subcutaneous tumors were 100-300 mm^3, some mice were treated with 40 mg/kg GEM and the tumors were removed 48 hr. later. The tumors were minced then incubated with 5 ml of collagenase type IV (200 U/ml) at 37° C. for 2 hrs. The cells were passed through a 40 μm filter, washed with PBS then stained with annexin V-FITC and analyzed by flow cytometry."}, "[6]": {"experiment": "Mouse body weight during treatment", "format": "in vivo", "settings": "tumor-bearing mice, compared to control or to GEM alone", "source_text": "The mice treated in FIG. 6 were weighed on the indicated days. […] However, SapC-DOPS prevented the weight loss due to GEM alone. *p<0.01 between saline and GEM alone. #p<0.01 between GEM and SapC-DOPS or GEM and the combination of GEM and SapC-DOPS."}},
  "data": [
    {"smiles": "Nc1ccn([C@@H]2O[C@H](CO)[C@@H](O)C2(F)F)c(=O)n1", "note": "[GEM, 2′, 2′-difluoro 2′deoxycytidine]", "values": [
      {"measurement": "cell death in low vs high surface PS populations", "setting": "cfPac-1 cells; sorted cells, 50 nM GEM", "result": "cell death was more profound in the low surface PS population compared to the high surface PS population"},
      {"measurement": "cell killing in low vs high surface PS populations", "setting": "cfPac-1 cells; sorted cfPac-1 cells, GEM 72 hr, MTT", "result": "killed more cells from the low surface PS population compared to the high surface PS population"},
      {"measurement": "percentage of cells in G1 phase", "setting": "[1]", "result": "significant decrease in the percentage of cells in the G1 phase"},
      {"measurement": "percentage of cells in G2/M phase", "setting": "[1]", "result": "increased percentage in the G2/M phase"},
      {"measurement": "cyclin B1/cyclin D1 protein ratio", "setting": "[2]", "result": "an increase in the cyclin B1/cyclin D1 ratio"},
      {"measurement": "targeting of cells when G1 synchronized cells are treated", "setting": "MiaPaCa-2 cells", "result": "increased targeting of G1 cells compared to SapC-DOPS"},
      {"measurement": "surface PS in viable (PI-negative) PDAC cells", "setting": "[3]; sub-toxic GEM, 48 hr, annexin V-FITC", "result": "increased surface PS in viable PDAC cells"},
      {"measurement": "apoptosis at sub-toxic concentrations", "setting": "[3]; sub-toxic concentrations of GEM, PDAC cells", "result": "< 10", "unit": "%"},
      {"measurement": "PS surface expression in normal pancreatic cells", "setting": "[4]", "result": "no increased PS surface expression"},
      {"measurement": "surface PS in tumor cells isolated from subcutaneous xenografts", "setting": "[5]; 48 hrs after 40 mg/kg GEM in vivo", "result": "induced an increase in surface PS in tumor cells"},
      {"measurement": "cells killed by the GEM treatment", "setting": "[5]; in vitro or in vivo, FIG. 4 treatments", "result": "Less than 10%"},
      {"measurement": "mouse weight", "setting": "[6]", "result": "significant decrease in mouse weight"}
    ]}
  ]
}
